Key:
Test in all cases: Cell panel screen (CellTiter-Glo)
Format in all cases: cell-based, human
[1] = system: C3A; details: Homo sapiens; C3A (Liver), 20 micromolar, 72 hrs; read-out: Percent Inhibition
Procedure, shortened: (§1)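 Single-concentration screen: 20 μM compound, 72 h, versus DMSO-only untreated cells. Viability read by CellTiter-Glo luminescence; % inhibition = (untreated − treated)/(untreated − no-cell background) × 100. Cells grown in recommended media plus 10% FBS at 37° C.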

[2] = system: NCI-H1770; details: Homo sapiens; NCI-H1770 (Lung), 20 micromolar, 72 hrs; read-out: Percent Inhibition
Procedure, shortened: as §1

[3] = system: HPAF-II; details: Homo sapiens; HPAF-II (Pancreas), 20 micromolar, 72 hrs; read-out: Percent Inhibition
Procedure, shortened: as §1

[4] = system: RL95; details: Homo sapiens; RL95 (Uterus), 20 micromolar, 72 hrs; read-out: Percent Inhibition
Procedure, shortened: as §1

[5] = system: CCF-STTG1; details: Homo sapiens; CCF-STTG1 (Brain), 20 micromolar, 72 hrs; read-out: Percent Inhibition
Procedure, shortened: as §1

[6] = system: C8166; details: Homo sapiens; C8166 (Leukemia), 20 micromolar, 72 hrs; read-out: Percent Inhibition
Procedure, shortened: as §1

[7] = system: M059J; details: Homo sapiens; M059J (Brain), 20 micromolar, 72 hrs; read-out: Percent Inhibition
Procedure, shortened: as §1

[8] = system: SW13; details: Homo sapiens; SW13 (Adrenal gland), 20 micromolar, 72 hrs; read-out: Percent Inhibition
Procedure, shortened: as §1

[9] = system: T47D; details: Homo sapiens; T47D (Breast), 20 micromolar, 72 hrs; read-out: Percent Inhibition
Procedure, shortened: as §1

[10] = system: HCC1937; details: Homo sapiens; HCC1937 (Breast), 20 micromolar, 72 hrs; read-out: Percent Inhibition
Procedure, shortened: as §1

[11] = system: NCI-H524; details: Homo sapiens; NCI-H524 (Lung), 20 micromolar, 72 hrs; read-out: Percent Inhibition
Procedure, shortened: as §1

[12] = system: BT-549; details: Homo sapiens; BT-549 (Breast), 20 micromolar, 72 hrs; read-out: Percent Inhibition
Procedure, shortened: as §1

[13] = system: NCI-H2347; details: Homo sapiens; NCI-H2347 (Lung), 20 micromolar, 72 hrs; read-out: Percent Inhibition
Procedure, shortened: as §1

[14] = system: ChaGo-K-1; details: Homo sapiens; ChaGo-K-1 (Lung), 20 micromolar, 72 hrs; read-out: Percent Inhibition
Procedure, shortened: as §1

[15] = system: Panc 03.27; details: Homo sapiens, PANC-03-27; Panc 03.27 (Pancreas), 20 micromolar, 72 hrs; read-out: Percent Inhibition
Procedure, shortened: as §1

[16] = system: HEC-1-A; details: Homo sapiens; HEC-1-A (Uterus), 20 micromolar, 72 hrs; read-out: Percent Inhibition
Procedure, shortened: as §1

[17] = system: NCI-H1694; details: Homo sapiens; NCI-H1694 (Lung), 20 micromolar, 72 hrs; read-out: Percent Inhibition
Procedure, shortened: as §1

[18] = system: HGC-27; details: Homo sapiens; HGC-27 (Stomach), 20 micromolar, 72 hrs; read-out: Percent Inhibition
Procedure, shortened: as §1

[19] = system: MSTO-211-H; details: Homo sapiens; MSTO-211-H (Lung), 20 micromolar, 72 hrs; read-out: Percent Inhibition
Procedure, shortened: as §1

[20] = system: J82; details: Homo sapiens; J82 (Urinary bladder), 20 micromolar, 72 hrs; read-out: Percent Inhibition
Procedure, shortened: as §1

[21] = system: HCC1395; details: Homo sapiens; HCC1395 (Breast), 20 micromolar, 72 hrs; read-out: Percent Inhibition
Procedure, shortened: as §1

[22] = system: BT-474; details: Homo sapiens; BT-474 (Breast), 20 micromolar, 72 hrs; read-out: Percent Inhibition
Procedure, shortened: as §1

[23] = system: T98G; details: Homo sapiens; T98G (Brain), 20 micromolar, 72 hrs; read-out: Percent Inhibition
Procedure, shortened: as §1

[24] = system: HCC1599; details: Homo sapiens; HCC1599 (Breast), 20 micromolar, 72 hrs; read-out: Percent Inhibition
Procedure, shortened: as §1

[25] = system: NCI-H28; details: Homo sapiens; NCI-H28 (Lung), 20 micromolar, 72 hrs; read-out: Percent Inhibition
Procedure, shortened: as §1

[26] = system: TCCSUP; details: Homo sapiens, TCC-SUP; TCCSUP (Urinary bladder), 20 micromolar, 72 hrs; read-out: Percent Inhibition
Procedure, shortened: as §1

[27] = system: A704; details: Homo sapiens; A704 (Kidney), 20 micromolar, 72 hrs; read-out: Percent Inhibition
Procedure, shortened: as §1

[28] = system: A498; details: Homo sapiens; A498 (listed under Lung), 20 micromolar, 72 hrs; read-out: Percent Inhibition
Procedure, shortened: as §1

SMILES | inhibition at 20 µM [1] [%] | inhibition at 20 µM [2] [%] | inhibition at 20 µM [3] [%] | inhibition at 20 µM [4] [%] | inhibition at 20 µM [5] [%] | inhibition at 20 µM [6] [%] | inhibition at 20 µM [7] [%] | inhibition at 20 µM [8] [%] | inhibition at 20 µM [9] [%] | inhibition at 20 µM [10] [%] | inhibition at 20 µM [11] [%] | inhibition at 20 µM [12] [%] | inhibition at 20 µM [13] [%] | inhibition at 20 µM [14] [%] | inhibition at 20 µM [15] [%] | inhibition at 20 µM [16] [%] | inhibition at 20 µM [17] [%] | inhibition at 20 µM [18] [%] | inhibition at 20 µM [19] [%] | inhibition at 20 µM [20] [%] | other results
CC(C)=CCC[C@@]1(C)C=Cc2c(O)c3c(c(CCC(C)(C)O)c2O1)O[C@]12C(=C[C@@H]4C[C@H]1C(C)(C)O[C@@]2(C/C=C(/C)C(=O)O)C4=O)C3=O [GB39, 33-hydroxyepigambogic acid] | 99 | 100 | 100 | 100 | 100 | 100 | 100 | 100 | 100 | 100 | 100 | 100 | 99 | 100 | 100 | 100 | 100 | 100 | 100 | 100 | inhibition at 20 µM [21]: 100%; inhibition at 20 µM [22]: 100%; inhibition at 20 µM [23]: 100%; inhibition at 20 µM [24]: 100%; inhibition at 20 µM [25]: 99%; inhibition at 20 µM [26]: 100%; inhibition at 20 µM [27]: 99%; inhibition at 20 µM [28]: 99%
CC(C)=CCC/C(C)=C/Cc1c(O)c(CC=C(C)C)c2c(c1O)C(=O)C1=C[C@@H]3C[C@H]4C(C)(C)O[C@@](C/C=C(\C)C=O)(C3=O)[C@@]14O2 [GB49] | 97 | 99 | 98 | 99 | 99 | 99 | 99 | 99 | 99 | 99 | 100 | 99 | 98 | 99 | 98 | 99 | 100 | 98 | 99 | 98 | inhibition at 20 µM [21]: 99%; inhibition at 20 µM [22]: 99%; inhibition at 20 µM [23]: 99%; inhibition at 20 µM [24]: 99%; inhibition at 20 µM [25]: 97%; inhibition at 20 µM [26]: 99%; inhibition at 20 µM [27]: 98%; inhibition at 20 µM [28]: 88%

Source: publication PMC4450297, “Screening Active Compounds from Garcinia Species Native to China Reveals Novel Compounds Targeting the STAT/JAK Signaling Pathway” (BioMed Research International, 2015)
